Series [1] has as its system rat hippocampal neurons. Kind of series: LDH leakage from cultured rat hippocampal neurons exposed to Aβ1-40. Format: cell-based. On the procedure: (§1) The cultured rat hippocampal neurons were prepared by the following procedure.
From the 18-day viviparous SD rat brain, the hippocampus was isolated on ice and treated with 0.25% trypsin and 0.1 mg/ml deoxyribonuclease I in Hank's solution at 37° C. for 10 minutes. The enzyme-treated cells were collected with a filter and suspended in Eagle's MEM containing 50 U/ml penicillin, 50 μg/ml streptomycin, 10% fetal calf serum, and 1% B27 Supplement (GIBCO). The suspension was diluted and seeded on a 48-well plate (COSTAR) precoated with poly-L-lysine, 100,000 cells/300 μl/well. Culture was carried out in the presence of 5% carbon dioxide gas at 37° C. […] On day 7 of culture, the medium was further replaced with MEM-N2 containing Aβ1-40 (Bachem) and the test drug, and the efficacy of the drug against the toxicity of Aβ1-40 was evaluated.
(§2) The lactate dehydrogenase (LDH) activity released extracellularly from the injured cells into the medium was assayed over 3-5 days after treatment and the toxicity was evaluated using the assayed activity as an indicator. In addition, on day 4 after addition of the drug, the cells were fixed with 4% paraformaldehyde, stained with anti-MAP2 antibody (Amersham) and randomly photographed under the microscope, and the number of neurons per visual field was counted.

Series [2] concerns rat hippocampal neurons. Briefly: Number of viable neurons (anti-MAP2 staining) after Aβ1-40. It counts as cell-based. The following applies: Aβ1-40 10 μM, day 4 after addition, FIG. 3. On the procedure:
as §1
From the 18-day viviparous SD rat brain, the hippocampus was isolated on ice and treated with 0.25% trypsin and 0.1 mg/ml deoxyribonuclease I in Hank's solution at 37° C. for 10 minutes. The enzyme-treated cells were collected with a filter and suspended in Eagle's MEM containing 50 U/ml penicillin, 50 μg/ml streptomycin, 10% fetal calf serum, and 1% B27 Supplement (GIBCO). The suspension was diluted and seeded on a 48-well plate (COSTAR) precoated with poly-L-lysine, 100,000 cells/300 μl/well. Culture was carried out in the presence of 5% carbon dioxide gas at 37° C. On day 4 of culture, the medium was replaced with Eagle's MEM (MEM-N2) containing 50 U/ml penicillin, 50 μg/ml streptomycin, 10 mM HEPES-Na (pH 7.3) and N2 Supplement. On day 7 of culture, the medium was further replaced with MEM-N2 containing Aβ1-40 (Bachem) and the test drug, and the efficacy of the drug against the toxicity of Aβ1-40 was evaluated.
as §2

For series [3], the system named is patients with Alzheimer's disease. To be noted: 90 mg or 120 mg 3 times a day (270 or 360 mg per day), 6 months; cited from earlier work.
For series [4], the system named is Alzheimer type senile dementia. The following applies: cited from earlier work.
In series [5] the test system is rat retinal neuron-neuroblastoma hybrid N18-RE-105 cells. To be noted: cited from earlier work.
The test system of a further series is cultured nerve cells. To be noted: cited from earlier work.

The values below come from US6271266A (Takeda Chemical Industries, Ltd., priority 1996, dated 2001).

On to `COC1=C(OC)C(=O)C(CCCCCCCCCCO)=C(C)C1=O` [idebenone, 6-(10-hydroxydecyl)-2,3-dimethoxy-5-methyl-1,4-benzoquinone], for which, in the series with rat hippocampal neurons [1] (idebenone 100 nM, Aβ1-40 10 μM, 3-5 days following addition, FIG. 2), the “release of LDH” value is given as “suppressed the release of LDH”. The neuronal death entry in the series on rat hippocampal neurons [2] (idebenone 100 nM) is given as “inhibited neuronal death significantly”. In the series with rat hippocampal neurons [2] (idebenone 100 nM, anti-MAP2 antibody), the “number of viable cells” value is “approximately equal to the number of viable cells in the control group”. Further, in series [3], the GOT time course result is on record as “the changes were small with substantially no difference from the control values” and the GPT time course result was “the changes were small with substantially no difference from the control values”. The “efficacy in Alzheimer type senile dementia” value in series [4] (90 mg daily to adult patients) was “efficacy”. For the same compound, the “clinical effect in Alzheimer type senile dementia” value in series [4] (high doses (270 mg-360 mg day per adult)) is recorded as “clinically effective”. In series [5], the glutamate-induced neuronal death result is recorded as “suppresses glutamate-induced neuronal death” and the “neuroprotection / reactive oxygen species scavenging” value is recorded as “exerts the neuroprotection by the reactive oxygen species scavenging activity”.
With Aβ1-40: β-amyloid protein 1-40 (Bachem), in the series on rat hippocampal neurons [1] (3-5 days after addition of Aβ1-40, FIG. 1), the “leakage of LDH activity into the medium (toxicity)” value is “dose-dependent toxicity”. Also, the number of neurons result with rat hippocampal neurons [2] is reported as “decline in the number of neurons”.
Regarding β-amyloid, in the series with cultured nerve cells, the neuronal toxicity entry was “shows neuronal toxicity”.
